Patent US9469650B2, “Melampomagnolide B derivatives” (BOARD OF TRUSTEES OF THE UNIVERSITY OF ARKANSAS, priority 2013, dated 2016)

Tests used:
A498 = experiment: panel of 60 human tumor cell lines, growth inhibition (Renal Cancer)
PC-3 = experiment: panel of 60 human tumor cell lines, growth inhibition (Prostate Cancer)
MDA-MB-231/ATCC = experiment: panel of 60 human tumor cell lines, growth inhibition (Breast Cancer); settings: for Percent Growth: MDA-MB-231/ATCC
HCT-116 = experiment: panel of 60 human tumor cell lines, growth inhibition (Colon Cancer); settings: for Percent Growth: HCT-116
SF-539 = experiment: panel of 60 human tumor cell lines, growth inhibition (CNS Cancer)
NCI-H322M = experiment: panel of 60 human tumor cell lines, growth inhibition (Non-Small Cell Lung Cancer)
OVCAR-5 = experiment: panel of 60 human tumor cell lines, growth inhibition (Ovarian Cancer)
HOP-62 = experiment: panel of 60 human tumor cell lines, growth inhibition (Non-Small Cell Lung Cancer)
U251 = experiment: panel of 60 human tumor cell lines, growth inhibition (CNS Cancer); settings: for Percent Growth: U251
NCI-H460 = experiment: panel of 60 human tumor cell lines, growth inhibition (Non-Small Cell Lung Cancer)
786-0 = experiment: panel of 60 human tumor cell lines, growth inhibition (Renal Cancer)
MDA-MB-435 = experiment: panel of 60 human tumor cell lines, growth inhibition (Melanoma)
NCI/ADR-RES = experiment: panel of 60 human tumor cell lines, growth inhibition (Ovarian Cancer)
DU-145 = experiment: panel of 60 human tumor cell lines, growth inhibition (Prostate Cancer)
SK-MEL-2 = experiment: panel of 60 human tumor cell lines, growth inhibition (Melanoma)
SN12C = experiment: panel of 60 human tumor cell lines, growth inhibition (Renal Cancer)
KM12 = experiment: panel of 60 human tumor cell lines, growth inhibition (Colon Cancer)

## C=C1C(=O)O[C@H]2[C@H]1CC/C(COC(=O)CCC(=O)NCc1ccc(Cl)nc1)=C\CC[C@@]1(C)O[C@@H]21 [JVM 96]
A498; A498, Log10 Concentration −4.0
  Percent Growth: −95%
A498; A498, Log10 Concentration −5.0
  Percent Growth: 74%
A498; A498, Log10 Concentration −6.0
  Percent Growth: 95%
A498; A498, Log10 Concentration −7.0
  Percent Growth: 107%
A498; A498, Log10 Concentration −8.0
  Percent Growth: 96%
A498; Homo sapiens, A498
  GI50: 13.9 µM
A498; Homo sapiens, A498, read-out: LC50
  CC50: 54.2 µM
A498; Homo sapiens, A498, read-out: TGI
  IC (TGI): 27.5 µM
PC-3; Homo sapiens, PC-3
  GI50: 15.6 µM
PC-3; Homo sapiens, PC-3, read-out: LC50
  CC50: 75.7 µM
PC-3; Homo sapiens, PC-3, read-out: TGI
  IC (TGI): 34.3 µM
PC-3; PC-3, Log10 Concentration −4.0
  Percent Growth: −68%
PC-3; PC-3, Log10 Concentration −5.0
  Percent Growth: 78%
PC-3; PC-3, Log10 Concentration −6.0
  Percent Growth: 93%
PC-3; PC-3, Log10 Concentration −7.0
  Percent Growth: 92%
PC-3; PC-3, Log10 Concentration −8.0
  Percent Growth: 90%
MDA-MB-231/ATCC; Homo sapiens, MDA-MB-231
  GI50: 6.19 µM
MDA-MB-231/ATCC; Homo sapiens, MDA-MB-231, read-out: LC50
  CC50: 61.5 µM
MDA-MB-231/ATCC; Homo sapiens, MDA-MB-231, read-out: TGI
  IC (TGI): 22.2 µM
MDA-MB-231/ATCC; Log10 Concentration −4.0
  Percent Growth: −74%
MDA-MB-231/ATCC; Log10 Concentration −5.0
  Percent Growth: 39%
MDA-MB-231/ATCC; Log10 Concentration −6.0
  Percent Growth: 91%
MDA-MB-231/ATCC; Log10 Concentration −7.0
  Percent Growth: 96%
MDA-MB-231/ATCC; Log10 Concentration −8.0
  Percent Growth: 97%
HCT-116; Log10 Concentration −4.0
  Percent Growth: −100%
HCT-116; Log10 Concentration −5.0
  Percent Growth: 13%
HCT-116; Log10 Concentration −6.0
  Percent Growth: 97%
HCT-116; Log10 Concentration −7.0
  Percent Growth: 93%
HCT-116; Log10 Concentration −8.0
  Percent Growth: 97%
HCT-116; Homo sapiens, HCT-116, HCT-116
  GI50: 3.62 µM
HCT-116; Homo sapiens, HCT-116, read-out: LC50
  CC50: 36.2 µM
HCT-116; Homo sapiens, HCT-116, read-out: TGI
  IC (TGI): 13.1 µM
SF-539; Homo sapiens, SF-539
  GI50: 3.25 µM
SF-539; Homo sapiens, SF-539, read-out: LC50
  CC50: 40.8 µM
SF-539; Homo sapiens, SF-539, read-out: TGI
  IC (TGI): 12.2 µM
SF-539; SF-539, Log10 Concentration −4.0
  Percent Growth: −87%
SF-539; SF-539, Log10 Concentration −5.0
  Percent Growth: 8%
SF-539; SF-539, Log10 Concentration −6.0
  Percent Growth: 94%
SF-539; SF-539, Log10 Concentration −7.0
  Percent Growth: 85%
SF-539; SF-539, Log10 Concentration −8.0
  Percent Growth: 96%
NCI-H322M; Homo sapiens
  GI50: 29.6 µM
NCI-H322M; Homo sapiens, read-out: LC50
  CC50: > 100 µM
NCI-H322M; Homo sapiens, read-out: TGI
  IC (TGI): > 100 µM
NCI-H322M; Log10 Concentration −4.0
  Percent Growth: 5%
NCI-H322M; Log10 Concentration −5.0
  Percent Growth: 90%
NCI-H322M; Log10 Concentration −6.0
  Percent Growth: 99%
NCI-H322M; Log10 Concentration −7.0
  Percent Growth: 95%
NCI-H322M; Log10 Concentration −8.0
  Percent Growth: 92%
OVCAR-5; Homo sapiens, OVCAR-5
  GI50: 12.1 µM
OVCAR-5; Homo sapiens, OVCAR-5, read-out: LC50
  CC50: 60.5 µM
OVCAR-5; Homo sapiens, OVCAR-5, read-out: TGI
  IC (TGI): 27.1 µM
OVCAR-5; OVCAR-5, Log10 Concentration −4.0
  Percent Growth: −81%
OVCAR-5; OVCAR-5, Log10 Concentration −5.0
  Percent Growth: 62%
OVCAR-5; OVCAR-5, Log10 Concentration −6.0
  Percent Growth: 89%
OVCAR-5; OVCAR-5, Log10 Concentration −7.0
  Percent Growth: 84%
OVCAR-5; OVCAR-5, Log10 Concentration −8.0
  Percent Growth: 93%
HOP-62; HOP-62, Log10 Concentration −4.0
  Percent Growth: −53%
HOP-62; HOP-62, Log10 Concentration −5.0
  Percent Growth: 95%
HOP-62; HOP-62, Log10 Concentration −6.0
  Percent Growth: 98%
HOP-62; HOP-62, Log10 Concentration −7.0
  Percent Growth: 93%
HOP-62; HOP-62, Log10 Concentration −8.0
  Percent Growth: 95%
HOP-62; Homo sapiens, HOP-62
  GI50: 20.1 µM
HOP-62; Homo sapiens, HOP-62, read-out: LC50
  CC50: 95.2 µM
HOP-62; Homo sapiens, HOP-62, read-out: TGI
  IC (TGI): 43.7 µM
U251; Homo sapiens, U-251
  GI50: 16.7 µM
U251; Homo sapiens, U-251, read-out: LC50
  CC50: 64.5 µM
U251; Homo sapiens, U-251, read-out: TGI
  IC (TGI): 32.8 µM
U251; Log10 Concentration −4.0
  Percent Growth: −82%
U251; Log10 Concentration −5.0
  Percent Growth: 88%
U251; Log10 Concentration −6.0
  Percent Growth: 99%
U251; Log10 Concentration −7.0
  Percent Growth: 93%
U251; Log10 Concentration −8.0
  Percent Growth: 92%
NCI-H460; Homo sapiens, NCI-H460
  GI50: 21.3 µM
NCI-H460; Homo sapiens, NCI-H460, read-out: LC50
  CC50: > 100 µM
NCI-H460; Homo sapiens, NCI-H460, read-out: TGI
  IC (TGI): 53.9 µM
NCI-H460; NCI-H460, Log10 Concentration −4.0
  Percent Growth: −33%
NCI-H460; NCI-H460, Log10 Concentration −5.0
  Percent Growth: 91%
NCI-H460; NCI-H460, Log10 Concentration −6.0
  Percent Growth: 101%
NCI-H460; NCI-H460, Log10 Concentration −7.0
  Percent Growth: 102%
NCI-H460; NCI-H460, Log10 Concentration −8.0
  Percent Growth: 102%
786-0; 786-0, Log10 Concentration −4.0
  Percent Growth: −91%
786-0; 786-0, Log10 Concentration −5.0
  Percent Growth: 26%
786-0; 786-0, Log10 Concentration −6.0
  Percent Growth: 94%
786-0; 786-0, Log10 Concentration −7.0
  Percent Growth: 92%
786-0; 786-0, Log10 Concentration −8.0
  Percent Growth: 94%
786-0; Homo sapiens, 786-0
  GI50: 4.43 µM
786-0; Homo sapiens, 786-0, read-out: LC50
  CC50: 44.4 µM
786-0; Homo sapiens, 786-0, read-out: TGI
  IC (TGI): 16.6 µM
MDA-MB-435; Homo sapiens, MDA-MB-435
  GI50: 4.95 µM
MDA-MB-435; Homo sapiens, MDA-MB-435, read-out: LC50
  CC50: 61.9 µM
MDA-MB-435; Homo sapiens, MDA-MB-435, read-out: TGI
  IC (TGI): 20.4 µM
MDA-MB-435; MDA-MB-435, Log10 Concentration −4.0
  Percent Growth: −72%
MDA-MB-435; MDA-MB-435, Log10 Concentration −5.0
  Percent Growth: 32%
MDA-MB-435; MDA-MB-435, Log10 Concentration −6.0
  Percent Growth: 90%
MDA-MB-435; MDA-MB-435, Log10 Concentration −7.0
  Percent Growth: 89%
MDA-MB-435; MDA-MB-435, Log10 Concentration −8.0
  Percent Growth: 97%
NCI/ADR-RES; Homo sapiens
  GI50: 31.1 µM
NCI/ADR-RES; Homo sapiens, read-out: LC50
  CC50: > 100 µM
NCI/ADR-RES; Homo sapiens, read-out: TGI
  IC (TGI): > 100 µM
NCI/ADR-RES; Log10 Concentration −4.0
  Percent Growth: 6%
NCI/ADR-RES; Log10 Concentration −5.0
  Percent Growth: 93%
NCI/ADR-RES; Log10 Concentration −6.0
  Percent Growth: 107%
NCI/ADR-RES; Log10 Concentration −7.0
  Percent Growth: 101%
NCI/ADR-RES; Log10 Concentration −8.0
  Percent Growth: 101%
DU-145; DU-145, Log10 Concentration −4.0
  Percent Growth: −97%
DU-145; DU-145, Log10 Concentration −5.0
  Percent Growth: 16%
DU-145; DU-145, Log10 Concentration −6.0
  Percent Growth: 98%
DU-145; DU-145, Log10 Concentration −7.0
  Percent Growth: 106%
DU-145; DU-145, Log10 Concentration −8.0
  Percent Growth: 99%
DU-145; Homo sapiens, DU-145
  GI50: 3.84 µM
DU-145; Homo sapiens, DU-145, read-out: LC50
  CC50: 38.4 µM
DU-145; Homo sapiens, DU-145, read-out: TGI
  IC (TGI): 13.9 µM
SK-MEL-2; Homo sapiens, SK-MEL-2
  GI50: 11.3 µM
SK-MEL-2; Homo sapiens, SK-MEL-2, read-out: LC50
  CC50: 64.1 µM
SK-MEL-2; Homo sapiens, SK-MEL-2, read-out: TGI
  IC (TGI): 26.9 µM
SK-MEL-2; SK-MEL-2, Log10 Concentration −4.0
  Percent Growth: −76%
SK-MEL-2; SK-MEL-2, Log10 Concentration −5.0
  Percent Growth: 57%
SK-MEL-2; SK-MEL-2, Log10 Concentration −6.0
  Percent Growth: 97%
SK-MEL-2; SK-MEL-2, Log10 Concentration −7.0
  Percent Growth: 92%
SK-MEL-2; SK-MEL-2, Log10 Concentration −8.0
  Percent Growth: 90%
SN12C; Homo sapiens
  GI50: 12.5 µM
SN12C; Homo sapiens, read-out: LC50
  CC50: > 100 µM
SN12C; Homo sapiens, read-out: TGI
  IC (TGI): 40.4 µM
SN12C; Log10 Concentration −4.0
  Percent Growth: −39%
SN12C; Log10 Concentration −5.0
  Percent Growth: 59%
SN12C; Log10 Concentration −6.0
  Percent Growth: 95%
SN12C; Log10 Concentration −7.0
  Percent Growth: 100%
SN12C; Log10 Concentration −8.0
  Percent Growth: 97%
KM12; Homo sapiens, KM12
  GI50: 17.7 µM
KM12; Homo sapiens, KM12, read-out: LC50
  CC50: 67.9 µM
KM12; KM12
  TGI: 3.46E−5
KM12; KM12, Log10 Concentration −4.0
  Percent Growth: −79%
KM12; KM12, Log10 Concentration −5.0
  Percent Growth: 92%
KM12; KM12, Log10 Concentration −6.0
  Percent Growth: 104%
KM12; KM12, Log10 Concentration −7.0
  Percent Growth: 100%
KM12; KM12, Log10 Concentration −8.0
  Percent Growth: 98%
